This test has as its system methanogenesis in rumen liquor. Nature of the test: In vitro test for methane production (modified Hohenheim Forage value Test, HFT). The settings on record: reduction in methane produced compared to control, average of two experiments. The method, then:
A modified version of the “Hohenheim Forage value Test (HFT)” was used for testing the effect of specific compounds on the rumen functions mimicked by this in-vitro system.
Feed is given into a syringe with a composition of rumen liquor and an appropriate mixture of buffers. The solution is incubated at 39° C. After 8 hours the quantity (and composition) of methane produced is measured and put into a formula for conversion.
The feed stuff is sieved to 1 mm—usually TMR (44% concentrate, 6% hay, 37% maize silage and 13% grass silage)—and weighed exactly into 64 syringes. 4 of these syringes are the substrate controls, which display the gas production without the effect of the tested compounds. 4 other syringes are positive control, in which bromoethane sulfonate has been added to 0.1 mM. When needed, 4 syringes contain a carrier control (if the test compounds need a carrier). The remaining syringes contain the test substances, by groups of 4 syringes.
The components are mixed in a Woulff bottle in following order: • 711 ml water • 0.18 ml trace element solution • 355.5 ml buffer solution • 355.5 ml mass element solution
The completed solution is warmed up to 39° C. followed by the addition of 1.83 ml sodium salt solution and the addition of reduction solution at 36° C. The rumen liquor is added, when the indicator turns colourless.
750 ml of rumen liquor are added to approximately 1,400 ml of medium solution under continued agitation and CO2-gassing.
The diluted rumen fluid (24 ml) is added to the glass syringe. The syringes are then incubated for 8 hours at 39° C. under gentle agitation. After 8 hours, the volume of gas produced is measured, and the percentage of methane in the gas phase is determined by gas chromatography.
The food fermented was artificial TMR (44% concentrate, 6% hay, 37% maize silage and 13% grass silage). The compounds produced as described in examples 3 to 11 were added to the fermentation syringes to a concentration of 1 to 0.1% of dry matter (DM).
The same in vitro assay as described in Example 1 has been performed with a series of molecules, wherein either the amine group has been replaced or, the amine group is not in para position.

The mark [1] stands for this setting: comparative compounds (Table 3), 1% DM.
The mark [2] stands for this setting: 0.1% DM, artificial TMR feed, 8 hours at 39° C.
The mark [3] stands for this setting: 0.25% DM, artificial TMR feed, 8 hours at 39° C.
Where [4] appears, read: 0.5% DM, artificial TMR feed, 8 hours at 39° C.
The mark [5] stands for this setting: 1% DM, artificial TMR feed, 8 hours at 39° C.

As for `Cc1ccc([N+](=O)[O-])cc1` [A, reference compound], the “effect on methanogenesis (%)” value under setting [1] came to 8%.

`O=C(O)c1ccc(C(=O)Nc2ccc([N+](=O)[O-])cc2)cc1` [C, reference compound]: under setting [1], the “effect on methanogenesis (%)” value worked out at 3%.

Consider `Nc1ccc([N+](=O)[O-])cc1` [Compound 1, (4-nitro-phenyl)-amine], for which the “effect on methanogenesis (%)” value under setting [2] stood at 15%, the “effect on methanogenesis (%)” value under setting [3] worked out at 43%, the “effect on methanogenesis (%)” value under setting [4] was determined as 88% and the “effect on methanogenesis (%)” value under setting [5] came out at 100%.

As to `CNc1ccc([N+](=O)[O-])cc1` [Compound 2, Methyl-(4-nitro-phenyl)-amine], the “effect on methanogenesis (%)” value runs as follows: under setting [2], 3%; under setting [5], 96%.

With `CCNc1ccc([N+](=O)[O-])cc1` [Compound 3, Ethyl-(4-nitro-phenyl)-amine], the “effect on methanogenesis (%)” value was 0% under setting [2] and 97% under setting [5].

In the case of `CN(C)c1ccc([N+](=O)[O-])cc1` [Compound 4, Dimethyl-(4-nitro-phenyl)-amine], the “effect on methanogenesis (%)” value under setting [2] stood at 0% and the “effect on methanogenesis (%)” value under setting [5] is 94%.

On to `CCCNc1ccc([N+](=O)[O-])cc1` [Compound 5, (4-Nitro-phenyl)-propyl-amine], for which the “effect on methanogenesis (%)” value under setting [2] was found to be 5%, the “effect on methanogenesis (%)” value under setting [3] stood at 20%, the “effect on methanogenesis (%)” value under setting [4] is given as 60% and the “effect on methanogenesis (%)” value under setting [5] is reported as 100%.

Regarding `CC(C)Nc1ccc([N+](=O)[O-])cc1` [Compound 6, Isopropyl-(4-nitro-phenyl)-amine], the “effect on methanogenesis (%)” value turned out to be 2% under setting [2] and 99% under setting [5].

In the case of `O=[N+]([O-])c1ccc(NCCO)cc1` [Compound 7, 2-(4-Nitro-phenylamino)-ethanol], the “effect on methanogenesis (%)” value is, setting by setting: under setting [2], 6%; under setting [5], 100%.

As to `O=[N+]([O-])c1ccc(NCCCO)cc1` [Compound 8, 3-(4-Nitro-phenylamino)-propan-1-ol], the “effect on methanogenesis (%)” value is, setting by setting: under setting [2], 1%; under setting [5], 100%.

For the molecule `O=[N+]([O-])c1ccc(NCc2ccccn2)cc1` [Compound 9, 4-Nitro-N-(Pyridin-2-ylmethyl)aniline], the “effect on methanogenesis (%)” value under setting [2] is listed as 3% and the “effect on methanogenesis (%)” value under setting [5] is given as 95%.

For the molecule `O=C(O)c1ccc(CNc2ccc([N+](=O)[O-])cc2)cc1` [Compound 10, 4-((4-Nitro-phenylamino)-methyl)-benzoic acid], the “effect on methanogenesis (%)” value is recorded as 3% under setting [3], 21% under setting [4] and 97% under setting [5].

With `O=C(O)c1cccc(CNc2ccc([N+](=O)[O-])cc2)c1` [Compound 11, 3-((4-Nitro-phenylamino)-methyl)-benzoic acid], the “effect on methanogenesis (%)” value was found to be 1% under setting [2] and 88% under setting [5].

Consider `Nc1cccc([N+](=O)[O-])c1` [Compound B, 3-Nitro-phenylamine, reference compound], for which the “effect on methanogenesis (%)” value under setting [1] is recorded as 7%.

As for `O=C(O)c1ccc(COc2ccc([N+](=O)[O-])cc2)cc1` [Compound D, 4-(4-Nitro-phenoxymethyl)-benzoic acid, reference compound], under setting [1], the “effect on methanogenesis (%)” value was 6%.

For `O=[N+]([O-])c1ccc(N2CCOCC2)cc1` [Compound F, 4-(4-Nitrophenyl)morpholine, reference compound], under setting [1], the “effect on methanogenesis (%)” value was 8%.

Source of the values: patent US20150064305A1, “USE OF PARA NITRO AMINO DERIVATIVES IN FEED FOR REDUCING METH-ANE EMISSION IN RUMINANTS” (DSM IP ASSETS B.V., priority 2012, published 2015).
